Measurements: patent US20020111274A1, “1-alkyl-3-[1-(substituted phenyl) benzotriazol-6-yl] uracils” (BASF Aktiengesellschaft, priority 2000, published 2002)

Experiments:
Set-up in all cases: scale not given here
SETVI Foxtail, Green [1] = assay: Preemergence herbicidal evaluation, SETVI; format: in vivo, Setaria viridis, (L.) Beau; settings: preemergence
Outline: (§1)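 Preemergence soil spray: aqueous acetone, ~0.013–0.800 kg/ha, applied right after sowing (seed/potting-soil mix over ~1 in soil). Greenhouse, routine watering. Scored 4–5 wk post-treatment on a rating scale.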

[2] = test system: IPOHE Morningglory, Ivyleaf; assay: Preemergence herbicidal evaluation, IPOHE; format: in vivo, Ipomoea hederacea, (L.) Jacq.; settings: preemergence
Outline: as §1

SETVI Foxtail, Green [3] = assay: Postemergence herbicidal evaluation, SETVI; format: in vivo, Setaria viridis, (L.) Beau; settings: postemergence spray, rated about two-three weeks after treatment
Outline: (§2)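 Visual injury rating ~2–3 wk post-spray; replicate tests averaged. Two-week-old seedlings; foliar spray at 40 psi; 0.006–0.400 kg ai/ha in 80/20 acetone/water + 1.0% methylated seed oil.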

ECHOG Barnyardgrass [4] = assay: Postemergence herbicidal evaluation, ECHOG; format: in vivo, Echinochloa crus-galli, (L.) Beau; settings: postemergence spray, rated about two-three weeks after treatment
Outline: as §2

AMBEL Ragweed, Common [5] = assay: Postemergence herbicidal evaluation, AMBEL; format: in vivo, Ambrosia artemisifolia, L.; settings: postemergence spray, rated about two-three weeks after treatment
Outline: as §2

[6] = test system: IPOHE Morningglory, Ivyleaf; assay: Postemergence herbicidal evaluation, IPOHE; format: in vivo, Ipomoea hederacea, (L.) Jacq.; settings: postemergence spray, rated about two-three weeks after treatment
Outline: as §2

[7] = test system: CHEAL Lambsquarters, Common; assay: Postemergence herbicidal evaluation, CHEAL; format: in vivo, Chenopodium album, L.; settings: postemergence spray, rated about two-three weeks after treatment
Outline: as §2

ABUTH Velvetleaf [8] = assay: Preemergence herbicidal evaluation, ABUTH; format: in vivo, Abutilon theophrasti, Medic.; settings: preemergence
Outline: as §1

[9] = test system: TRZAWR Wheat, Winter, cv Riband; assay: Postemergence herbicidal evaluation, TRZAWR; format: in vivo, Triticum aestivum; settings: postemergence spray, rated about two-three weeks after treatment
Outline: as §2

GALAP Galium [10] = assay: Postemergence herbicidal evaluation, GALAP; format: in vivo, Galium aparine; settings: postemergence spray, rated about two-three weeks after treatment
Outline: as §2

ECHOG Barnyardgrass [11] = assay: Preemergence herbicidal evaluation, ECHOG; format: in vivo, Echinochloa crus-galli, (L.) Beau; settings: preemergence
Outline: as §1

GLXMAW Soybean, Williams [12] = assay: Postemergence herbicidal evaluation, GLXMAW; format: in vivo, Glycine max, (L.) Merr. cv Williams; settings: postemergence spray, rated about two-three weeks after treatment
Outline: as §2

CASOB Sicklepod [13] = assay: Postemergence herbicidal evaluation, CASOB; format: in vivo, Cassia obtusifolia, L.; settings: postemergence spray, rated about two-three weeks after treatment
Outline: as §2

AMBEL Ragweed, Common [14] = assay: Preemergence herbicidal evaluation, AMBEL; format: in vivo, Ambrosia artemisifolia, L.; settings: preemergence
Outline: as §1

ORYSAT Rice, Tebonnet [15] = assay: Preemergence herbicidal evaluation, ORYSAT; format: in vivo, Oryza sativa, (L.); settings: preemergence
Outline: as §1

ZEAMX Corn, Field [16] = assay: Preemergence herbicidal evaluation, ZEAMX; format: in vivo, Zea mays, L. (Sammel-Bezeichnung); settings: preemergence
Outline: as §1

ZEAMX Corn, Field [17] = assay: Postemergence herbicidal evaluation, ZEAMX; format: in vivo, Zea mays, L. (Sammel-Bezeichnung); settings: postemergence spray, rated about two-three weeks after treatment
Outline: as §2

GLXMAW Soybean, Williams [18] = assay: Preemergence herbicidal evaluation, GLXMAW; format: in vivo, Glycine max, (L.) Merr. cv Williams; settings: preemergence
Outline: as §1

[19] = test system: CHEAL Lambsquarters, Common; assay: Preemergence herbicidal evaluation, CHEAL; format: in vivo, Chenopodium album, L.; settings: preemergence
Outline: as §1

GALAP Galium [20] = assay: Preemergence herbicidal evaluation, GALAP; format: in vivo, Galium aparine; settings: preemergence
Outline: as §1

CASOB Sicklepod [21] = assay: Preemergence herbicidal evaluation, CASOB; format: in vivo, Cassia obtusifolia, L.; settings: preemergence
Outline: as §1

[22] = test system: TRZAWR Wheat, Winter, cv Riband; assay: Preemergence herbicidal evaluation, TRZAWR; format: in vivo, Triticum aestivum; settings: preemergence
Outline: as §1

ORYSAT Rice, Tebonnet [23] = assay: Postemergence herbicidal evaluation, ORYSAT; format: in vivo, Oryza sativa, (L.); settings: postemergence spray, rated about two-three weeks after treatment
Outline: as §2

ABUTH Velvetleaf [24] = assay: Postemergence herbicidal evaluation, ABUTH; format: in vivo, Abutilon theophrasti, Medic.; settings: postemergence spray, rated about two-three weeks after treatment
Outline: as §2

Question: Which results are given for `CC(C)c1ccc(-n2nnc3cc(F)c(-n4c(=O)cc(C(F)(F)F)n(C)c4=O)cc32)cc1` [Example 21]?
Answer: SETVI herbicidal rating (SETVI Foxtail, Green [1]; rate 0.016 kg/ha): 0.0; SETVI herbicidal rating (SETVI Foxtail, Green [1]; rate 0.032 kg/ha): 2.0; SETVI herbicidal rating (SETVI Foxtail, Green [1]; rate 0.062 kg/ha): 6.5; SETVI herbicidal rating (SETVI Foxtail, Green [1]; rate 0.125 kg/ha): 9.0; IPOHE herbicidal rating ([2]; rate 0.016 kg/ha): 0.0; IPOHE herbicidal rating ([2]; rate 0.032 kg/ha): 1.5; IPOHE herbicidal rating ([2]; rate 0.062 kg/ha): 2.0; IPOHE herbicidal rating ([2]; rate 0.125 kg/ha): 3.5; Postemergence herbicidal rating SETVI (SETVI Foxtail, Green [3]; 0.008 kg/ha): 0.0; Postemergence herbicidal rating SETVI (SETVI Foxtail, Green [3]; 0.016 kg/ha): 0.0; Postemergence herbicidal rating SETVI (SETVI Foxtail, Green [3]; 0.032 kg/ha): 5.0; Postemergence herbicidal rating SETVI (SETVI Foxtail, Green [3]; 0.062 kg/ha): 5.0; Postemergence herbicidal rating ECHCG (ECHOG Barnyardgrass [4]; 0.008 kg/ha): 0.0; Postemergence herbicidal rating ECHCG (ECHOG Barnyardgrass [4]; 0.016 kg/ha): 0.0; Postemergence herbicidal rating ECHCG (ECHOG Barnyardgrass [4]; 0.032 kg/ha): 0.0; Postemergence herbicidal rating ECHCG (ECHOG Barnyardgrass [4]; 0.062 kg/ha): 0.0; Postemergence herbicidal rating AMBEL (AMBEL Ragweed, Common [5]; 0.008 kg/ha): 2.0; Postemergence herbicidal rating AMBEL (AMBEL Ragweed, Common [5]; 0.016 kg/ha): 9.0; Postemergence herbicidal rating AMBEL (AMBEL Ragweed, Common [5]; 0.032 kg/ha): 9.0; Postemergence herbicidal rating AMBEL (AMBEL Ragweed, Common [5]; 0.062 kg/ha): 9.0; Postemergence herbicidal rating IPOHE ([6]; 0.008 kg/ha): 9.0; Postemergence herbicidal rating IPOHE ([6]; 0.016 kg/ha): 9.0; Postemergence herbicidal rating IPOHE ([6]; 0.032 kg/ha): 6.0; Postemergence herbicidal rating IPOHE ([6]; 0.062 kg/ha): 9.0; Postemergence herbicidal rating CHEAL ([7]; 0.008 kg/ha): 8.0; Postemergence herbicidal rating CHEAL ([7]; 0.016 kg/ha): 4.0; Postemergence herbicidal rating CHEAL ([7]; 0.032 kg/ha): 9.0; Postemergence herbicidal rating CHEAL ([7]; 0.062 kg/ha): 9.0; ABUTH herbicidal rating (ABUTH Velvetleaf [8]; rate 0.016 kg/ha): 0.0; ABUTH herbicidal rating (ABUTH Velvetleaf [8]; rate 0.032 kg/ha): 4.5; ABUTH herbicidal rating (ABUTH Velvetleaf [8]; rate 0.062 kg/ha): 6.0; ABUTH herbicidal rating (ABUTH Velvetleaf [8]; rate 0.125 kg/ha): 9.0; Postemergence herbicidal rating TRZAWR ([9]; 0.008 kg/ha): 3.5; Postemergence herbicidal rating TRZAWR ([9]; 0.016 kg/ha): 4.0; Postemergence herbicidal rating TRZAWR ([9]; 0.032 kg/ha): 4.0; Postemergence herbicidal rating TRZAWR ([9]; 0.062 kg/ha): 4.0; Postemergence herbicidal rating GALAP (GALAP Galium [10]; 0.008 kg/ha): 2.0; Postemergence herbicidal rating GALAP (GALAP Galium [10]; 0.016 kg/ha): 4.0; Postemergence herbicidal rating GALAP (GALAP Galium [10]; 0.032 kg/ha): 4.0; Postemergence herbicidal rating GALAP (GALAP Galium [10]; 0.062 kg/ha): 9.0; ECHCG herbicidal rating (ECHOG Barnyardgrass [11]; rate 0.016 kg/ha): 0.0; ECHCG herbicidal rating (ECHOG Barnyardgrass [11]; rate 0.032 kg/ha): 0.0; ECHCG herbicidal rating (ECHOG Barnyardgrass [11]; rate 0.062 kg/ha): 1.0; ECHCG herbicidal rating (ECHOG Barnyardgrass [11]; rate 0.125 kg/ha): 3.5; Postemergence herbicidal rating GLXMAW (GLXMAW Soybean, Williams [12]; 0.008 kg/ha): 4.5; Postemergence herbicidal rating GLXMAW (GLXMAW Soybean, Williams [12]; 0.016 kg/ha): 5.0; Postemergence herbicidal rating GLXMAW (GLXMAW Soybean, Williams [12]; 0.032 kg/ha): 5.5; Postemergence herbicidal rating GLXMAW (GLXMAW Soybean, Williams [12]; 0.062 kg/ha): 5.5; Postemergence herbicidal rating CASOB (CASOB Sicklepod [13]; 0.008 kg/ha): 0.0; Postemergence herbicidal rating CASOB (CASOB Sicklepod [13]; 0.016 kg/ha): 0.0; Postemergence herbicidal rating CASOB (CASOB Sicklepod [13]; 0.032 kg/ha): 1.0; Postemergence herbicidal rating CASOB (CASOB Sicklepod [13]; 0.062 kg/ha): 2.0; AMBEL herbicidal rating (AMBEL Ragweed, Common [14]; rate 0.016 kg/ha): 0.0; AMBEL herbicidal rating (AMBEL Ragweed, Common [14]; rate 0.032 kg/ha): 3.0; AMBEL herbicidal rating (AMBEL Ragweed, Common [14]; rate 0.062 kg/ha): 3.5; AMBEL herbicidal rating (AMBEL Ragweed, Common [14]; rate 0.125 kg/ha): 7.5; ORYSAT herbicidal rating (ORYSAT Rice, Tebonnet [15]; rate 0.016 kg/ha): 0.0; ORYSAT herbicidal rating (ORYSAT Rice, Tebonnet [15]; rate 0.032 kg/ha): 0.0; ORYSAT herbicidal rating (ORYSAT Rice, Tebonnet [15]; rate 0.062 kg/ha): 0.0; ORYSAT herbicidal rating (ORYSAT Rice, Tebonnet [15]; rate 0.125 kg/ha): 0.0; ZEAMX herbicidal rating (ZEAMX Corn, Field [16]; rate 0.016 kg/ha): 0.0; ZEAMX herbicidal rating (ZEAMX Corn, Field [16]; rate 0.032 kg/ha): 0.0; ZEAMX herbicidal rating (ZEAMX Corn, Field [16]; rate 0.062 kg/ha): 1.0; ZEAMX herbicidal rating (ZEAMX Corn, Field [16]; rate 0.125 kg/ha): 3.5; Postemergence herbicidal rating ZEAMX (ZEAMX Corn, Field [17]; 0.008 kg/ha): 4.5; Postemergence herbicidal rating ZEAMX (ZEAMX Corn, Field [17]; 0.016 kg/ha): 4.5; Postemergence herbicidal rating ZEAMX (ZEAMX Corn, Field [17]; 0.032 kg/ha): 4.5; Postemergence herbicidal rating ZEAMX (ZEAMX Corn, Field [17]; 0.062 kg/ha): 5.0; GLXMAW herbicidal rating (GLXMAW Soybean, Williams [18]; rate 0.016 kg/ha): 0.0; GLXMAW herbicidal rating (GLXMAW Soybean, Williams [18]; rate 0.032 kg/ha): 0.0; GLXMAW herbicidal rating (GLXMAW Soybean, Williams [18]; rate 0.062 kg/ha): 0.5; GLXMAW herbicidal rating (GLXMAW Soybean, Williams [18]; rate 0.125 kg/ha): 1.0; CHEAL herbicidal rating ([19]; rate 0.016 kg/ha): 9.0; CHEAL herbicidal rating ([19]; rate 0.032 kg/ha): 9.0; CHEAL herbicidal rating ([19]; rate 0.062 kg/ha): 9.0; CHEAL herbicidal rating ([19]; rate 0.125 kg/ha): 9.0; GALAP herbicidal rating (GALAP Galium [20]; rate 0.016 kg/ha): 0.0; GALAP herbicidal rating (GALAP Galium [20]; rate 0.032 kg/ha): 0.0; GALAP herbicidal rating (GALAP Galium [20]; rate 0.062 kg/ha): 0.0; GALAP herbicidal rating (GALAP Galium [20]; rate 0.125 kg/ha): 0.0; CASOB herbicidal rating (CASOB Sicklepod [21]; rate 0.016 kg/ha): 0.0; CASOB herbicidal rating (CASOB Sicklepod [21]; rate 0.032 kg/ha): 0.0; CASOB herbicidal rating (CASOB Sicklepod [21]; rate 0.062 kg/ha): 1.5; CASOB herbicidal rating (CASOB Sicklepod [21]; rate 0.125 kg/ha): 2.0; TRZAWR herbicidal rating ([22]; rate 0.016 kg/ha): 0.0; TRZAWR herbicidal rating ([22]; rate 0.032 kg/ha): 0.0; TRZAWR herbicidal rating ([22]; rate 0.062 kg/ha): 0.0; TRZAWR herbicidal rating ([22]; rate 0.125 kg/ha): 1.0; Postemergence herbicidal rating ORYSAT (ORYSAT Rice, Tebonnet [23]; 0.008 kg/ha): 3.0; Postemergence herbicidal rating ORYSAT (ORYSAT Rice, Tebonnet [23]; 0.016 kg/ha): 3.5; Postemergence herbicidal rating ORYSAT (ORYSAT Rice, Tebonnet [23]; 0.032 kg/ha): 3.5; Postemergence herbicidal rating ORYSAT (ORYSAT Rice, Tebonnet [23]; 0.062 kg/ha): 3.5; Postemergence herbicidal rating ABUTH (ABUTH Velvetleaf [24]; 0.008 kg/ha): 9.0; Postemergence herbicidal rating ABUTH (ABUTH Velvetleaf [24]; 0.016 kg/ha): 9.0; Postemergence herbicidal rating ABUTH (ABUTH Velvetleaf [24]; 0.032 kg/ha): 9.0; Postemergence herbicidal rating ABUTH (ABUTH Velvetleaf [24]; 0.062 kg/ha): 9.0
